# System: iHep cells
# Test: CYP metabolism assay, iHep cells incubated with substrate, metabolite by LC-MS/MS
# Details: for 4′-OH-Diclotenac: mouse, 3 h
# Method: To determine Alb secretion, TTFs transduced with three factors were cultured in the medium without phenol red. Culture supernatant was collected 24 h after medium change. The amount of Alb in the supernatant was determined by the mouse albumin ELISA kit (BETHYL LABORATORY) according to the manufacturer's instructions. […] The supernatants were collected for measurement of indicated productions by LC-MS/MS (AGILENT 1200 HPLC and ABI 4000 mass-spectrometer). Freshly isolated hepatocytes were used as a positive control. Total cell protein amount was used to normalize the data.
# Metabolites of these chemicals were measured by liquid chromatography-tandem mass spectrometry (LC/MS/MS) according to each standard curve.
Structure (SMILES),4′-OH-Diclotenac (12.5 μM),4′-OH-Diclotenac (25 μM),4′-OH-Diclotenac (50 μM),4′-OH-Diclotenac (100 μM),"metabolism by iHep cells (iHep cells, P<0.05)"
"O=C(O)Cc1ccccc1Nc1c(Cl)cccc1Cl [Diclofenac, diclofenac]",0.0 pmol/min/mg protein,17.0 ± 8.0 pmol/min/mg protein,195.4 ± 16.0 pmol/min/mg protein,483.3 ± 60.1 pmol/min/mg protein,
"C[C@]12CC[C@H]3[C@@H](CCC4=CC(=O)CC[C@@]43C)[C@@H]1CC[C@@H]2O [Testosterone, testosterone]",,,,,metabolized

# Reference: patent US9416348B2, “Hepatocyte-like cells and uses thereof” (priority 2010, dated 2016)
